Assay results as given in patent US20230416297A1, “ANDROGEN RECEPTOR MODULATORS” (TRUSTEES OF DARTMOUTH COLLEGE, priority 2020, published 2023).
Several values for one entry are separate records, joined by “and”; a condition that tells them apart may be missing. Equal values may be shown once.

Columns and labels:
[1] = target: T1, androgen receptor (Homo sapiens, UniProt P10275); assay: human AR antagonist assay (Indigo Biosciences); type: cell-based; parameters: purchased Indigo Biosciences
T1 sequence (P10275 1-920): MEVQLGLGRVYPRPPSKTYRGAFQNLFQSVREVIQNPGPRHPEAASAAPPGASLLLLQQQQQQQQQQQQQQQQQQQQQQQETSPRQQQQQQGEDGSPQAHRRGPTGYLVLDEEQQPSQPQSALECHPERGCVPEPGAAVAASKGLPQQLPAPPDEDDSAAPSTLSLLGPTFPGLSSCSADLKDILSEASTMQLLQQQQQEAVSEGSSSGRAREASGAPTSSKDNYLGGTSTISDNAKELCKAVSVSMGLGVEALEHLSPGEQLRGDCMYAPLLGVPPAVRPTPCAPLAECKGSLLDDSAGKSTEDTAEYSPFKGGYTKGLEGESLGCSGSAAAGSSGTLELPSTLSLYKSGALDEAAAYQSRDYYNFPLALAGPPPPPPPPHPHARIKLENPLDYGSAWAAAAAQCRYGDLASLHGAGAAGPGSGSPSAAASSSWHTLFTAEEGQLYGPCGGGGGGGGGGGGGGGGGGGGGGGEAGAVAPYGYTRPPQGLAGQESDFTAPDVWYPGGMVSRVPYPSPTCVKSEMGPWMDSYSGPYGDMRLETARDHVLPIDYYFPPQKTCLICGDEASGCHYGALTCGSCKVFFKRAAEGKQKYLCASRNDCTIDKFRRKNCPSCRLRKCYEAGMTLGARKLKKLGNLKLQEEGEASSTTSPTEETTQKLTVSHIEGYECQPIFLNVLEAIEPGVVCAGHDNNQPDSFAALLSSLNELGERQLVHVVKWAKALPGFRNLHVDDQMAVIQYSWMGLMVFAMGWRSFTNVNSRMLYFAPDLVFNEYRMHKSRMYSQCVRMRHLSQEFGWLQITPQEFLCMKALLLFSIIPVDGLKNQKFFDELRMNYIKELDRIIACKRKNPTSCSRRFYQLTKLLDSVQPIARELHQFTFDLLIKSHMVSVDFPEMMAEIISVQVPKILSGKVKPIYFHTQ
From the text: (§1) The activity of a compound can be determined using various known methods. For example, AR assays can be used. Such AR assays include binding assays using, for example, cells transfected with the human androgen receptor. Several cell based model systems that allow sensitive detection and monitoring of steroids or other compounds with AR bioactivity are known. Most cell based AR reporter models use transgenic gene constructs that include an androgen response element (ARE) that controls reporter gene (e.g., lucifersrase) expression. For example, a human AR Reporter Assay System is commercially available from Indigo Biosciecnes. The principle application of such an assay product is to quantify functional activities, either agonist or antagonist, that a compound may exert against the human androgen receptor. […] In addition, the anti-proliferative activity of a compound can be determined using various known methods, including in vitro and in vivo antiproliferative assays using cancer cell lines such as a prostate cancer cell line.
(§2) The activity of certain compounds were tested in a human AR agonist assay and a human AR antagonist assay (Indigo Biosciences).

[2] = target: T1, androgen receptor; assay: AR binding (Ki, Table A)
From the text: as §1

[3] = target: T1, androgen receptor; assay: human AR agonist assay (Indigo Biosciences); type: cell-based; parameters: purchased Indigo Biosciences; conditions: for HillSlope: agonist mode, Table 1 / FIG. 1
From the text: as §1, §2

[4] = antagonist mode, Table 3 / FIG. 3
[5] = antagonist mode, Table 2 / FIG. 2

SMILES: CC(C)CCC[C@]12CC[C@@]3(C)C(=C1C[C@@H](O)C2)CCC1=CC(=O)CC[C@@H]13 [Compound 110]
- HillSlope [1, 4]: 0.6338

SMILES: C[C@]12CC[C@@]3(C)C(=C1C[C@H](O)C2)CCC1=CC(=O)CC[C@@H]13 [Compound 103, (9R,10S,13R,16R)-16-hydroxy-9,13-dimethyl-1,2,6,7,9,10,11,12,13,15,16,17-dodecahydro-3H-cyclopenta[a]phenanthren-3-one]
- Ki [2]: 3460 nM
- HillSlope [3]: ≈1.247
- IC50 ([1]; Table A): 1240 nM
- HillSlope [1, 5]: 1.906
- IC50 [1, 5]: 1240 nM

SMILES: CC(C)(O)C(=O)Nc1ccc([N+](=O)[O-])c(C(F)(F)F)c1 [hydroxyflutamide, reference compound]
- HillSlope [1]: 1.305 and 1.653

SMILES: C[C@@]12CC[C@]3(C)C(=C1C[C@H](O)C2)CCC1=CC(=O)CC[C@H]13 [Compound 104]
- IC50 ([1]; Table A): 4300 nM

SMILES: C[C@@]12CC[C@]3(C)C(=C1C[C@@H](O)C2)CCC1=CC(=O)CC[C@H]13 [Compound 105]
- IC50 ([1]; Table A): 1500 nM

SMILES: C[C@]12CC[C@@]3(C)C(=C1C[C@@H](O)C2)CCC1=C[C@@H](O)CC[C@@H]13 [Compound 107]
- IC50 ([1]; Table A): 4800 nM

SMILES: CC(=O)O[C@@H]1CC2=C3CCC4=CC(=O)CC[C@@H]4[C@@]3(C)CC[C@]2(C)C1 [Compound 101, (9R,10S,13R,16S)-9,13-dimethyl-3-oxo-2,3,6,7,9,10,11,12,13,15,16,17-dodecahydro-1H-cyclopenta[a]phenanthren-16-yl acetate]
- Ki [2]: 7350 nM
- EC50 [3]: 10000 nM
- HillSlope [3]: 1.063
- IC50 ([1]; Table A): 413 nM
- HillSlope [1, 5]: 2.100
- IC50 [1, 5]: 413 nM

SMILES: C[C@]12CC[C@@]3(C)C(=C1C[C@@H](O)C2)CCC1=CC(=O)CC[C@@H]13 [Compound 102, (9R,10S,13R,16S)-16-hydroxy-9,13-dimethyl-1,2,6,7,9,10,11,12,13,15,16,17-dodecahydro-3H-cyclopenta[a]phenanthren-3-one]
- Ki [2]: 919 nM
- EC50 [3]: 23000 nM
- HillSlope [3]: 1.300
- IC50 ([1]; Table A): 654 nM
- HillSlope [1, 5]: 1.728
- IC50 [1, 5]: 654 nM

SMILES: CC(C)CCC[C@]12CC[C@@]3(C)C(=C1C[C@@H](O)C2)CCC1=CC(=O)CC[C@@H]13 [Compound 108]
- HillSlope [1, 4]: 1.225
